{
  "source": "patent US7030108B2",
  "about": "“Combating Parkinson's disease-related movement disorder” (Reed Richter, priority 1999, dated 2006)",
  "type_in_all_cases": "in vivo, human",
  "key": {"[1]": {"tested_on": "levodopa-induced dyskinesias", "experiment": "Mirtazapine treatment of Parkinson's Disease patients with levodopa/dopamine-induced dyskinesias (case reports)", "method": "A person with a 15 year history of Parkinson's Disease was treated. […] In August, 1997, the patient was started on mirtazapine (Remeron) at a dosage of 3 mg at night to aid in sleep. […] Throughout the regimen of treatment, the dose of Sinemet remained stable. […] In May 1998, they were started on mirtazapine (Remeron) at a dosage of 30 mg at night. […] No other medication had been changed."}, "tremor": {"tested_on": "tremor", "experiment": "Patient group of Examples 1-6 treated for tremor / movement disorder (all types)"}, "[2]": {"tested_on": "essential tremor (action tremor)", "experiment": "Treatment of patients with essential / action tremor without Parkinson's disease (case reports)", "method": "A person with a 20-year history of upper extremity action tremor with a frequency of approximately 8–12 hz. The patient bad no signs or symptoms of Parkinson's disease. […] The patient was started on mirtazapine (Remeron) at a dosage of 30 mg at night.\nA person with a lifelong history of action tremor and anxiety but no signs or symptoms of Parkinson's disease was treated. […] Although the tremor always improved with a decrease in the anxiety (using SSRIs and benzodiazepines) the tremor persisted at an unsatisfactory level of severity.\nIn March, 1998, the patient began medication with a dosage of 15 mg of mirtazapine (Remeron) at night, then on their own volition, increased the administration of the same dose of mirtazapine to twice a day (for a total dose of 30 mg).\nThus, in the patient group involved in the study of Examples 1–6, a total of fifteen individuals was treated with mirtazapine, and of such population, twelve of the patients responded well to treatment with substantial tremor reduction. Of such total of fifteen patients, eight patients had essential tremor, and five of the eight responded. […] Three patients had levodopa-induced dyskinesias and all three responded."}, "[3]": {"tested_on": "Parkinsonian tremor (resting and action)", "experiment": "Mirtazapine treatment of patients with Parkinsonian tremor (case reports)", "method": "A patient with mild Parkinson's Disease for 4 years experienced recurrent tremor that interfered with their ability to hold and deal cards while playing bridge. […] The patient was administered mirtazapine (Remeron®, Organon) at a dosage of 30 mg per day, taken at night for concomitant depression. […] A person with a nine-year history of Parkinson's Disease characterized by bradykinesia and marked right upper extremity resting tremor was treated. […] In May 1998, they were started on mirtazapine (Remeron) at a dosage of 30 mg at night. […] No other medication had been changed."}, "sedation": {"tested_on": "sedation", "experiment": "Sedation / drowsiness side effect in treated patients", "method": "Two months later, the patient discontinued the administration of mirtazapine because they were oversleeping. Such oversleeping behavior was not believed to relate to the administration of mirtazapine, however. The patient in fact stopped and restarted the mirtazapine multiple times.\nA person with a 15 year history of Parkinson's Disease was treated. […] In August, 1997, the patient was started on mirtazapine (Remeron) at a dosage of 3 mg at night to aid in sleep. The next morning the patient's spouse telephoned excitedly to say that the spouse had only shaken for 15 minutes. This positive development continued making their “on” time more functional.\nIn almost all cases, the improvement in the tremor behavior came literally overnight, that is, after an initial 30 mg dose taken in the evening before retiring. […] Patients were aware of an improvement immediately. During neurological exam, patients described the types of activities that they could perform before and after administration of mirtazapine (e.g., dealing cards, feeding oneself without spilling, being able to return to exercise classes as a consequence of the improvement experienced, etc.)."}, "[4]": {"conditions": "Example 3: person, 30 mg at night, no other medication changed"}, "[5]": {"conditions": "Example 3, mirtazapine restarted"}, "[6]": {"conditions": "Example 3, several months later, mirtazapine stopped"}, "[7]": {"conditions": "Example 5, 15 mg twice a day (total 30 mg)"}},
  "data": [
    {"compound": "CN1CCN2c3ncccc3Cc3ccccc3[C@H]2C1", "note": "(racemic) [mirtazapine, 1,2,3,4,10,14b-hexahydro-2-methyl-pyrazino [2,1-a]pyrido [2,3-c]benzazepine]", "values": [
      {"measurement": "time the patient had shaken", "setting": "[1]; Example 2: person, violent dyskinesias, 3 mg at night, reported the next morning", "value": 15, "unit": "min"},
      {"measurement": "dopamine-induced dyskinesias after a new dopa agonist (ropirinole) was added", "setting": "[1]; Example 2, six months later, Sinemet dose stable", "value": "no increase in dopamine-induced dyskinesias"},
      {"measurement": "patient-reported change in dopamine-induced dyskinesias", "setting": "[1]; [4]", "value": "rapid improvement"},
      {"measurement": "dyskinesia upon restarting medication", "setting": "[1]; [5]", "value": "both movement disorders again responded"},
      {"measurement": "dyskinesia after stopping medication", "setting": "[1]; [6]", "value": "return of the tremor and dyskinesia"},
      {"measurement": "levodopa-induced dyskinesia patients who responded", "setting": "[1]; Examples 1-6, of three patients", "value": "three"},
      {"measurement": "patients responding favorably with marked attenuation of tremor activity", "setting": "tremor; Example 6, of ten additional patients", "value": "seven"},
      {"measurement": "patients responding well with substantial tremor reduction", "setting": "tremor; Examples 1-6, of a total of fifteen individuals", "value": "twelve"},
      {"measurement": "onset of improvement in tremor behavior", "setting": "tremor; in almost all cases, after an initial 30 mg dose taken in the evening", "value": "overnight"},
      {"measurement": "postural and kinetic tremors on physical exam", "setting": "[2]; Example 4: person, 20-year upper extremity action tremor, 30 mg at night", "value": "greatly reduced"},
      {"measurement": "patient-reported change in action tremor", "setting": "[2]; Example 5: person, action tremor and anxiety, 15 mg twice a day (total 30 mg)", "value": "improvement in the tremor especially when eating or drinking"},
      {"measurement": "clinical exam", "setting": "[2]; [7]", "value": "improved marginally"},
      {"measurement": "handwriting", "setting": "[2]; [7]", "value": "remained a problem"},
      {"measurement": "essential tremor patients who responded", "setting": "[2]; Examples 1-6, of eight patients with essential tremor", "value": "five"},
      {"measurement": "patient-reported effect on resting and action tremor (holding cards)", "setting": "[3]; Example 1: person, mild Parkinson's Disease, 30 mg per day at night, on Sinemet, within days of initial administration", "value": "they could hold their cards without embarrassment"},
      {"measurement": "tremor upon reinitiated administration", "setting": "[3]; Example 1, mirtazapine reinitiated, Sinemet dose unchanged", "value": "again experienced resolution of the tremors"},
      {"measurement": "tremor upon cessation of medication", "setting": "[3]; Example 1, mirtazapine stopped, Sinemet dose unchanged", "value": "the tremor (resting and action) returned"},
      {"measurement": "patient-reported change in Parkinsonian tremor", "setting": "[3]; [4]", "value": "rapid improvement"},
      {"measurement": "tremor upon restarting medication", "setting": "[3]; [5]", "value": "both movement disorders again responded"},
      {"measurement": "tremor after stopping medication", "setting": "[3]; [6]", "value": "return of the tremor"},
      {"measurement": "Parkinsonian resting tremor patients who responded", "setting": "[3]; Examples 1-6, of four patients (fourth not yet returned for follow-up)", "value": "three"},
      {"measurement": "sedation side effect", "setting": "sedation; Example 1, patient currently remaining on mirtazapine", "value": "without experiencing any sedation side effect"},
      {"measurement": "drowsiness during the day", "setting": "sedation; Example 2, 3 mg at night", "value": "never reported that they were drowsy during the day"},
      {"measurement": "sedation", "setting": "sedation; patients of the above-referenced examples", "value": "sedation did not occur"}
    ]},
    {"compound": "CC(C)NCC(O)COc1cccc2ccccc12", "note": "(stereo not shown) [propranolol]", "values": [
      {"measurement": "response of action tremor", "setting": "[2]; Example 5 patient, before mirtazapine", "value": "seemed to respond to propranolol initially"}
    ]}
  ]
}
